These results are taken from patent US7563899B2, “(S)-N-methylnaltrexone” (Progenics Pharmaceuticals, Inc., priority 2005, dated 2009).

The target of test [1] is T1, human μ (mu, MOP) receptor (Homo sapiens, UniProt P35372).
T1 construct: expressed in transfected cells; host or cells: CHO cells
Put plainly: cAMP assay in CHO cells expressing human mu receptor, agonist assay. In kind it is cell-based.

Test [2] has as its target μ-opioid receptors in the guinea pig ileum (Cavia porcellus, UniProt A0ACM8Q262). As to the kind of experiment: Guinea pig ileum bioassay, test for agonist activity (inhibition of electrically evoked twitch contractions). As to conditions: mean, n=2; for Response to the compound (decrease in twitch contraction amplitude): percent of control response to DAMGO 1.0E−07 M. On the procedure:
Experimental Conditions. Segments of guinea pig terminal ileum were suspended in 20-ml organ baths filled with an oxygenated (95% O2 and 5% CO2) and pre-warmed (37° C.) physiological salt solution of the following composition (in mM): NaCl 118.0, KCl 4.7, MgSO4 1.2, CaCl2 2.5, KH2PO4 1.2, NaHCO3 25.0 and glucose 11.0 (pH 7.4). Additional experimental conditions were as described in Hutchinson et al. (1975) Brit. J. Pharmacol., 55: 541-546.
Indomethacin (1 μM), nor-binaltorphimine (0.01 μM), methysergide (1 μM), ondansetron (10 μM) and GR113808 (0.1 μM) were also present throughout the experiments to prevent prostanoid release and to block the k-opioid, 5-HT2, 5-HT3 and 5-HT4 receptors, respectively. The tissues were connected to force transducers for isometric tension recordings. They were stretched to a resting tension of 1 g then allowed to equilibrate for 60 min during which time they were washed repeatedly and the tension readjusted. Thereafter, they were stimulated electrically with pulses of minimal intensity to trigger maximal contractions and 1 ms duration, delivered at 0.1 Hz by a constant current stimulator.
Test for agonist activity. […] The different concentrations were added cumulatively and each was left in contact with the tissues until a stable response was obtained or for a maximum of 15 min.
Analysis and Expression of Results. The parameter measured was the maximum change in the amplitude of the electrically-evoked twitch contractions induced by each compound concentration.

Test [3] deals with gastrointestinal transit in rats. As to the kind of experiment: Gastrointestinal transit (charcoal motility) in rats, alone or before morphine. In kind it is in vivo, rat. As to conditions: for Mean Motility: ratio of length of charcoal transit/total intestine length, * p<0.05 vs vehicle. On the procedure: F. et al J. Pharmacol. Exptl. Therap. 133: 400-408, 1961; D. E. Gmerek, et al J. Pharmacol. Exptl. Ther. 236: 8-13, 1986; and O. Yamamoto et al Neurogastroenterol. Motil. 10: 523-532, 1998.
A control group of rats received 2 mL/kg of a 0.9% saline solution (n=10). After 15 minutes, rats were subcutaneously injected with saline (1 mL/kg) or morphine (3 mg/kg). A 10% suspension of activated charcoal in 0.25% methylcellulose was administered orally at 10 mL/kg to the rats 20 minutes (±2 minutes) after the subcutaneous dose of morphine or saline. The rats were euthanized 25 minutes (±3 minutes) after receiving the charcoal and the intestines were removed and lightly stretched on moist paper along a meterstick. The small intestine from pyloric sphincter to caecum was measured and the distance traveled by the charcoal as a fraction of that length was evaluated for each rat.
Statistically significant effects were determined by ANOVA with Tukey HSD Multiple Comparison Test. Differences with p values <0.05 were considered statistically significant.
Values for charcoal motility were expressed as a percent effect and were calculated in the following manner: The individual distance traveled by the charcoal in centimeters was divided by the total length of the intestines in centimeters (pyloric sphincter to caecum) for each rat. Mean values were calculated for each group, and the percent effect was calculated using the following formula: […]

Where [4] appears, read: 1 mg/kg sc + Morphine 3 mg/kg sc.
The mark [5] stands for this setting: 3 mg/kg sc + Morphine 3 mg/kg sc.
Setting [6] is: 10 mg/kg sc + Morphine 3 mg/kg sc.

T1 sequence (P35372 whole entry): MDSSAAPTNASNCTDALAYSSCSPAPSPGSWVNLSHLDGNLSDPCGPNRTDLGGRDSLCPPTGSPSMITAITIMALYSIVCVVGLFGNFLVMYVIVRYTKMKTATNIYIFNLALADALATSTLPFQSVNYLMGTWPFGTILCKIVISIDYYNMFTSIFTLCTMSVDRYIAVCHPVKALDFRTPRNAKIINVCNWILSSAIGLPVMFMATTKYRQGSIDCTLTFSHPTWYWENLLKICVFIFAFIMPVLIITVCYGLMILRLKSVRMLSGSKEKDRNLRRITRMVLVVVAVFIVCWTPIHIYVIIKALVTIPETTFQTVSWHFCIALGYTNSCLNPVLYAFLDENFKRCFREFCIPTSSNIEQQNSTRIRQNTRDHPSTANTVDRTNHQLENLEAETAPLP
μ-opioid receptors in the guinea pig ileum, sequence (A0ACM8Q262 1-400): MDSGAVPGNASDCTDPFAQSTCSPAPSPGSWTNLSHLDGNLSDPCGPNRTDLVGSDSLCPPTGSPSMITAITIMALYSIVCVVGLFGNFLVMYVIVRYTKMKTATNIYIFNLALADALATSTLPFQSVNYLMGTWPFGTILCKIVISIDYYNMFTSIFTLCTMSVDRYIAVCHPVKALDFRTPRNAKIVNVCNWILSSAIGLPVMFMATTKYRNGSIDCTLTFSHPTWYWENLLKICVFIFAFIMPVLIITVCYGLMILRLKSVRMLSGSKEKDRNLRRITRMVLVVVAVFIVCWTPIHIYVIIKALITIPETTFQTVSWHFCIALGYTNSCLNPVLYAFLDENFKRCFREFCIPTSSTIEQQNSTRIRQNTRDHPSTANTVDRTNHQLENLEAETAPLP

On to `C[C@@H](NC(=O)[C@@H](N)Cc1ccc(O)cc1)C(=O)NCC(=O)N(C)[C@@H](Cc1ccccc1)C(=O)NCCO` [DAMGO, reference compound], for which the “cAMP agonist assay value (Table IX.1)” value in test [1] (log{M} conc −4.0) was −1; in test [1] (log{M} conc −5.0), 2; in test [1] (log{M} conc −6.0), 1; in test [1] (log{M} conc −7.0), 2; in test [1] (log{M} conc −8.0), 68; in test [1] (log{M} conc −9.0), 63. In addition, the “cAMP agonist assay value (Table IX.1)” value came to 88 in test [1] (log{M} conc −10.0) and 105 in test [1] (log{M} conc −11.0). For the same compound, the figures for the “Response to the compound (decrease in twitch contraction amplitude)” value in test [2] (1.0E−07 M), in test [2] (1.0E−08 M) and in test [2] (1.0E−09 M) were 99%, 49% and 12%, respectively. Further, the “Response to the compound +naloxone” value in test [2] (compound 1.0E−07 M + naloxone 1.0E−07 M, percent of control response to DAMGO) was 3%.

Regarding `CN1CC[C@]23c4c5ccc(O)c4O[C@H]2[C@@H](O)C=C[C@H]3[C@H]1C5` [Morphine, morphine], in test [3] (Saline + Morphine 3 mg/kg sc), the “Percent Decrease” value is listed as 33% and the “Mean Motility” value is on record as 0.407*. Also, the “effect on GI transit when administered alone” value in test [3] (rats, sc) was “decreased GI motility”.

Turning to `C[N+]1(CC2CC2)CC[C@]23c4c5ccc(O)c4O[C@H]2C(=O)CC[C@@]3(O)[C@H]1C5` (stereo partly drawn) [R-MNTX, (R)-N-methylnaltrexone], the “Percent Decrease” value in test [3] (setting [4]) turned out to be 24%; in test [3] (setting [5]), 8%; in test [3] (setting [6]) it was 8%; in test [3] (10 mg/kg sc + Saline) it was 6%. The “Mean Motility” value is 0.463* in test [3] (setting [4]), 0.558 in test [3] (setting [5]), 0.557 in test [3] (setting [6]) and 0.572 in test [3] (10 mg/kg sc + Saline). In addition, the “effect on GI transit in combination with / prior to morphine” value in test [3] (rats, sc, 15 minutes before morphine 3 mg/kg) is recorded as “reversed the GI slowing effect of morphine”. Further, in test [3] (rats, sc), the “effect on GI transit when administered alone” value is listed as “no effect on GI transit”.
